Measured values from publication PMC8102404, “A key role for the transporter OAT1 in systemic lipid metabolism” (The Journal of Biological Chemistry, 2021).

Target: T1, Organic anion transporter 1 (hOAT1) (Homo sapiens, UniProt Q4U2R8)
T1 construct: gene SLC22A6
T1 sequence (Q4U2R8 1-563): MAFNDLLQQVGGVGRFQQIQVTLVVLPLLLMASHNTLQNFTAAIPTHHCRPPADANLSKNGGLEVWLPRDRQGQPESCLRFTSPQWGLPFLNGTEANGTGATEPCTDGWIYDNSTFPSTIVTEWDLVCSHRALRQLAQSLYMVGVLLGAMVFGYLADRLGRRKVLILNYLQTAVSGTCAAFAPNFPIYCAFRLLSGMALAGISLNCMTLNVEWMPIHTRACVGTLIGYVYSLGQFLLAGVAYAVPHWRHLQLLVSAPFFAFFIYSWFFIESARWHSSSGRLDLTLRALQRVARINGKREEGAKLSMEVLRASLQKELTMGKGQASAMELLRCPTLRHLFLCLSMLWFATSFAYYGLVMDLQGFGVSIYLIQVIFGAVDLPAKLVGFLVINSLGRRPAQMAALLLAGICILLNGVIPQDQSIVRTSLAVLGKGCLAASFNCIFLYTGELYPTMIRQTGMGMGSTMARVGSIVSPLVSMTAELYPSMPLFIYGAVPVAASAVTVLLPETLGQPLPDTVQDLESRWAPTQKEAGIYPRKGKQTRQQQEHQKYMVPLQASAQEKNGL
Experiment: competitive inhibition of 6-carboxyfluorescein uptake in hOAT1-overexpressing HEK293 cells
Assay type: cell-based

CCCCCCCCCCCCCCC(=O)O [Pentadecanoic acid]
IC50: 103 µM
